# Test results published in patent US20200390729A1, “OPHTHALMIC TOPICAL COMPOSITION COMPRISING DOBESILIC ACID FOR TREATING DISEASES OF THE POSTERIOR SEGMENT OF THE EYE” (LABORATORIOS SALVAT, S.A., priority 2017, published 2020).
# Where two headings read alike, the source gives them in different places.
# Legend:
# [1] = Ocular distribution of CDO in rats, single dose topical ocular vs. oral; assay type: in vivo, Sprague Dawley (SD) rat; design: key to CDO concentrations Retina / CDO concentrations Optic nerve: —: non-detectable
# Description: In Sprague Dawley (SD) rat, weighing approximately 200 g, CDO was administered by topical ocular instillation (10 μl/eye) at 10 mg/ml (composition 2 of Example 1), at 100 mg/ml (composition 5 of Example 1) or by oral gavage at 50 mg/kg, at 200 mg/kg or at 750 mg/kg in aqueous solution (from compositions 1, 3 and 4, respectively, of Example 1). At 15, 60, 180 and 360 minutes post-administration, animals were euthanized and plasma and ocular tissues including sclera, cornea, retina, vitreous humour/lens and optic nerve were collected.
# (§1) Bioanalysis of CDO was performed depending on the type of matrix. In the case of plasma, proteins were precipitated using methanol. In the case of tissues, samples were grinded in a Mini Bead Beater using zirconium beads and methanol/water (1:1) (v/v) as solvent. After centrifugation, samples were analyzed by UPLC-MS/MS.
# (§2) Chromatographic separation was carried out using an Acquity CSH Fluoro Phenyl column (1.7 μm, 50×2.1 mm). Mobile phase consisted of a gradient using 0.1% formic acid in water and acetonitrile from 5% to 45% in 4.5 min at a flow rate of 0.6 ml/min.
# (§3) With regard to the mass spectrometric detection, the electrospray ionization source worked to record negative ions. Multiple Reaction Monitoring (MRM) acquisition mode of the deprotonated molecular ions was performed. The transition monitored for CDO was m/z 189.0→80.1 with a cone voltage of 45 V and collision energy of 25 eV.
# [2] = Ocular distribution of CDO in rabbits, single dose topical ocular vs. oral; assay type: in vivo, New Zealand White rabbit; conditions: for concentration at 0.25 h / concentration at 1 h / concentration at 3 h / concentration at 6 h: New Zealand White
# Description: In New Zealand White rabbit, weighing approximately 1.8 kg, CDO was administered by topical ocular instillation (33 μl/eye) at 10 mg/ml (composition 2 of Example 1), at 100 mg/ml (composition 5 of Example 1) or by oral gavage at 25 mg/kg in aqueous solution (from composition 1 of Example 1). At 15, 60, 180 and 360 minutes post-administration, animals were euthanized and plasma and ocular tissues including retina/choroid and optic nerve were collected.
# as §1, §2, §3
# [3] = rat, oral 50 mg/Kg = 10 mg, 0.25 h
# [4] = rat, oral 50 mg/Kg = 10 mg, 1 h
# [5] = rat, topical eye 10 mg/ml (eye drop of 10 μl) = 0.1 mg, 3 h
# [6] = optic nerve, rabbit, Oral 25 mg/Kg = 45 mg, read-out: CDO μg/g tissue Optic nerve
# [7] = optic nerve, rabbit, Topical eye administration 10 mg/ml = 0.3 mg, read-out: CDO μg/g tissue Optic nerve
# [8] = optic nerve, rabbit, Topical eye administration 100 mg/ml = 3.3 mg, read-out: CDO μg/g tissue Optic nerve
# [9] = retina/choroid, rabbit, Oral 25 mg/Kg = 45 mg, read-out: CDO μg/g tissue Retina/Choroid
# [10] = retina/choroid, rabbit, Topical eye administration 10 mg/ml = 0.3 mg, read-out: CDO μg/g tissue Retina/Choroid
# [11] = retina/choroid, rabbit, Topical eye administration 100 mg/ml = 3.3 mg, read-out: CDO μg/g tissue Retina/Choroid
structure (smiles),measurement,setting,value
"O=S(=O)(O)c1cc(O)ccc1O [CDO, Calcium dobesilate monohydrate]",concentration at 1 h,"[1]; Sprague-Dawley, plasma, rat, topical eye 10 mg/ml (eye drop of 10 μl) = 0.1 mg, 1 h, read-out: CDO concentrations Plasma",10 ng/g
same,concentration at 3 h,"[1]; Sprague-Dawley, plasma, rat, topical eye 10 mg/ml (eye drop of 10 μl) = 0.1 mg, 3 h, read-out: CDO concentrations Plasma",80 ng/g
same,concentration at 0.25 h,"[1]; Sprague-Dawley, plasma, rat, topical eye 100 mg/ml (eye drop of 10 μl) = 1 mg, 0.25 h, read-out: CDO concentrations Plasma",220 ng/g
same,concentration at 1 h,"[1]; Sprague-Dawley, plasma, rat, topical eye 100 mg/ml (eye drop of 10 μl) = 1 mg, 1 h, read-out: CDO concentrations Plasma",370 ng/g
same,concentration at 3 h,"[1]; Sprague-Dawley, plasma, rat, topical eye 100 mg/ml (eye drop of 10 μl) = 1 mg, 3 h, read-out: CDO concentrations Plasma",280 ng/g
same,concentration at 1 h,"[1]; Sprague-Dawley, retina/choroid, rat, topical eye 100 mg/ml (eye drop of 10 μl) = 1 mg, 1 h, read-out: CDO concentrations Retina/Choroid",1520 ng/g
same,concentration at 3 h,"[1]; Sprague-Dawley, retina/choroid, rat, topical eye 100 mg/ml (eye drop of 10 μl) = 1 mg, 3 h, read-out: CDO concentrations Retina/Choroid",1570 ng/g
same,CDO amounts in target tissues (optic nerve and retina choroids) 6 hours after topical ocular administration,"[1]; rat, 6 hours after topical ocular administration",could be detected
same,CDO concentrations Optic nerve,[1]; [3],—
same,CDO concentrations Retina,[1]; [3],—
same,CDO concentrations Optic nerve,[1]; [4],—
same,CDO concentrations Retina,[1]; [4],—
same,CDO concentrations Retina,"[1]; rat, oral 50 mg/Kg = 10 mg, 3 h",—
same,CDO concentrations Retina,"[1]; rat, oral 50 mg/Kg = 10 mg, 6 h",—
same,amount of CDO orally administered showing equivalent levels in retina to 1 mg CDO instilled onto the eye surface,"[1]; rat, single dose",40 to 150 mg
same,CDO concentrations Retina,"[1]; rat, topical eye 10 mg/ml (eye drop of 10 μl) = 0.1 mg, 1 h",—
same,CDO concentrations Optic nerve,[1]; [5],—
same,CDO concentrations Retina,[1]; [5],—
same,CDO concentrations Retina,"[1]; rat, topical eye 10 mg/ml (eye drop of 10 μl) = 0.1 mg, 6 h",—
same,plasmatic levels after topical eye administration,"[1]; rats, topical eye administration",low plasmatic levels
same,concentration at 0.25 h,[2]; [6],0.74 µg/g
same,concentration at 1 h,[2]; [6],1.61 µg/g
same,concentration at 3 h,[2]; [6],0.49 µg/g
same,concentration at 6 h,[2]; [6],0.1 µg/g
same,concentration at 0.25 h,[2]; [7],0.23 µg/g
same,concentration at 1 h,[2]; [7],0.76 µg/g
same,concentration at 3 h,[2]; [7],0.65 µg/g
same,concentration at 6 h,[2]; [7],0.45 µg/g
same,concentration at 0.25 h,[2]; [8],14.4 µg/g
same,concentration at 1 h,[2]; [8],22.9 µg/g
same,concentration at 3 h,[2]; [8],4.5 µg/g
same,concentration at 6 h,[2]; [8],1.92 µg/g
same,concentration at 0.25 h,[2]; [9],0.43 µg/g
same,concentration at 1 h,[2]; [9],0.95 µg/g
same,concentration at 3 h,[2]; [9],0.28 µg/g
same,concentration at 6 h,[2]; [9],0.12 µg/g
same,concentration at 0.25 h,[2]; [10],0.27 µg/g
same,concentration at 1 h,[2]; [10],0.29 µg/g
same,concentration at 3 h,[2]; [10],0.16 µg/g
same,concentration at 6 h,[2]; [10],0.11 µg/g
same,concentration at 0.25 h,[2]; [11],7.88 µg/g
same,concentration at 1 h,[2]; [11],6.41 µg/g
same,concentration at 3 h,[2]; [11],3.47 µg/g
same,concentration at 6 h,[2]; [11],1.14 µg/g
same,CDO amounts in target tissues (optic nerve and retina choroids) 6 hours after topical ocular administration,"[2]; rabbit, 6 hours after topical ocular administration",could be detected
same,"values of CDO in target tissues, topical vs. single oral dose","[2]; rabbits, topical eye single low dose 0.3 mg vs oral 45 mg",equivalent to those of a single oral dose (45 mg)
same,"levels of the drug in target tissues, topical vs. single oral dose","[2]; rabbits, topical single dose CDO 3.3 mg vs single oral dose",higher levels of the drug are detected than those obtained following a single oral dose
